Data on five compounds can be found in US11571454B2, “Anticancer peptides that synergistically enhance chemotherapeutic potency” (The Penn State Research Foundation, priority 2017, dated 2023).

The term pIC50 denotes the IC50 on a negative log10 scale, so that one unit is a factor of ten. Lower therefore signals a high IC50.

pIC50: −log10 of the molar value.

Series [1] has as its system OVCAR-3 cells. As to the kind of experiment: Combinatorial (checkerboard) cytotoxicity, OVCAR-3. As to conditions: for Combined FIC Score, OVCAR-3: chemotherapeutic in combination with MAD1, FIC <1 additive, <0.5 synergistic; for synergy with MAD1, OVCAR-3: drug-refractory line, combination with MAD1. The class given is cell-based, human. An excerpt: (§1) For combinatorial cytotoxicity experiments, 96 well plates were set up in a checkerboard fashion such that peptide decreased in 1:10 concentration dilutions in one direction and chemotherapeutic decreased in 1:10 concentration dilutions in the orthogonal direction. 2×treatments were combined prior to cell administration for a final 1×concentration to prevent individual treatment effects.

Series [2] concerns NCI/ADR-RES cells. As to the kind of experiment: Combinatorial (checkerboard) cytotoxicity, NCI/ADR-RES. It counts as cell-based, human. As to conditions: for Combined FIC Score, NCl/ADR-RES: chemotherapeutic in combination with MAD1, FIC <1 additive, <0.5 synergistic; for drug potency (IC50) in NCI/ADR-RES on co-treatment with MAD1: in the presence of 20 μM MAD1, compared with OVCAR-3; for synergy with MAD1, NCI/ADR-RES: multidrug resistant line, combination with MAD1.
Source text: as §1

For series [3], the system named is patient-derived tumor cell spheroids (EOC15, 17, 19). As to the kind of experiment: Ex vivo 3D tumor spheroid culture. It counts as cell-based, human. The method, then: EOC patient-derived cells were cultured in 1:1 MCDB-105: M199 supplemented with 10% FBS and 1% penicillin-streptomycin. EOC patient-derived cells were provided by Dr. Katherine M. Aird under an Institutional Review Board-approved protocol. EOC patient-derived cells were collected from patient ascites fluid after paracentesis procedures. Cells were routinely tested for mycoplasma as previously described. […] Spheroid length and width was calculated using ImageJ. Spheroid volume was calculated using the following equation […] Statistical Methods […] IC50 values are reported as mean values±standard deviation. […] Pore size frequency distribution was completed by ImageJ FIJI on 4 independent cells and n=30 pores from SEM images. […] Individual UV-Vis and CD spectra, as well as fluorescent confocal and TEM micrographs, shown are representative plots from three individual experiments. CD data is with a variance in ellipticity of 0.2 millidegrees at each wavelength. Relative fluorescence data calculated from fluorescent confocal images represents the average of 10 independent measurements±standard deviation. For spheroid volume analysis, a Kruskal-Wallis test and Dunn's multiple comparisons test was performed using GraphPad Prism 8.

Series [4] deals with A549 (lung carcinoma) cells. As to the kind of experiment: MTT cytotoxicity assay, A549. The note with it: for IC50: 48 hours treatment, MTT, read-out: Cancerous (IC50, μM) A549. It counts as cell-based, human. On the procedure:
(§2) All cells were cultured using standard culture conditions at 37° C., 5% CO2, and 95% humidity. A549 (CCL-185), OVCAR-3 (HTB-161), T24 (HTB-4), and NCI/ADR-RES were cultured in RPMI-1640 supplemented with 10% v/v fetal bovine serum (FBS), 2 mM L-glutamine (L-Gln), 10,000 units penicillin/mL, 10 mg/mL streptomycin, and 25 μg/mL amphotericin B. HUVEC (PCS-100-010) cells were cultured in Vascular Cell Basal Media (PCS-100-030) supplemented with an Endothelial Cell Growth Kit-VEGF (PCS-100-041) and 10 μg/mL gentamycin in culture flasks coated with 0.1% gelatin by incubating at 37° C. for 15 min. NL20 (CRL-2503) cells were cultured in Ham's F12 supplemented with 1.5 g/L sodium bicarbonate, 2.7 g/L glucose, 2.0 mM L-glutamine, 0.1 mM nonessential amino acids, 0.005 mg/ml insulin, 10 ng/ml epidermal growth factor, 0.001 mg/ml transferrin, 500 ng/ml hydrocortisone and 4% fetal bovine serum, as advised by American Type Culture Collection (ATCC).
(§3) Viability was calculated by comparing to an untreated control.
(§4) All experiments were performed with n>6.
(§5) Cell viability experiments were completed n>6 in two independent experiments and analyzed using GraphPad Prism 8 to fit curves and calculate IC50 values using inhibitor vs. normalized response non-linear regression model. IC50 values are reported as mean values±standard deviation. […] Pore size frequency distribution was completed by ImageJ FIJI on 4 independent cells and n=30 pores from SEM images. UV-Vis OD600 and CD spectra are means of 5 and 3 replicates, respectively and reported as mean±standard deviation. Individual UV-Vis and CD spectra, as well as fluorescent confocal and TEM micrographs, shown are representative plots from three individual experiments. CD data is with a variance in ellipticity of 0.2 millidegrees at each wavelength. Relative fluorescence data calculated from fluorescent confocal images represents the average of 10 independent measurements±standard deviation. For spheroid volume analysis, a Kruskal-Wallis test and Dunn's multiple comparisons test was performed using GraphPad Prism 8.
For orientation: Tetrazolium dyes change colour on reduction, which living cells bring about.

The subject of series [5] is NCI/ADR-RES (drug-resistant ovarian carcinoma) cells. Nature of the series: MTT cytotoxicity assay, NCI/ADR-RES. The class given is cell-based, human. The note with it: for IC50: 48 hours treatment, MTT, read-out: Cancerous (IC50, μM) NCl/ADR-RES. On the procedure:
as §2, §3, §4, §5

In series [6] the test system is polymicrobial panel (six bacterial lines). As to the kind of experiment: Antimicrobial activity against polymicrobial panel. The note with it: six bacterial lines. It counts as cell-based.
The test system of series [7] is OVCAR-3 ovarian carcinoma cells. The note with it: for pIC50: 48 h.
The subject of series [8] is T24 (urinary bladder transitional cell carcinoma) cells. As to conditions: 48 h.
Series [9] concerns human umbilical vein endothelial cells (HUVEC). The note with it: 48 h.
Series [10] deals with human lung epithelium (NL20). The note with it: 48 h.
The subject of series [11] is B. subtilis (168). The note with it: 24 hours, Gram Positive.
In series [12] the test system is MS S. aureus. The note with it: 24 hours, Gram Positive.
Series [13] relates to MR S. aureus. The note with it: 24 hours, Gram Positive.
Series [14] has as its system P. aeruginosa. The note with it: 24 hours, Gram Negative.
The test system of series [15] is E. coli. As to conditions: 24 hours, Gram Negative.
Series [16] concerns M. tuberculosis. As to conditions: 24 hours, Mycobacteria.
Series [17] relates to panel of human cancer cell lines (A549, OVCAR-3, NCI/ADR-RES, T24).
The nature of series [18]: Liposome disruption (OD600), cancer membrane model. As to conditions: OD600 and visual flocculates. On the procedure: (§6) Liposomes were prepared by extrusion techniques according to previous methods. Briefly, all liposomes were prepared in 2×concentration (5 mM). Healthy and cancer liposomal mimicking membranes were prepared with 72:23:[…] phosphatidylcholine (POPC):phosphatidylethanolamine (DOPE):phosphatidylserine (POPS) lipids, respectively. The lipids dissolved in chloroform were mixed in proper molar proportions before being evaporated under a stream of argon. The lipid film was then dried completely by lyophilization overnight. […] The extruded liposomes were then dialyzed in 3500 MWCO dialysis cassettes against water. Parallel optical density experiments were conducted measuring the absorbance at 600 nm (OD600) to track the kinetics and specificity of membrane disruption. Measurements were taken every 30 seconds for the first 10 min., followed by measurements every minute until 15 min.

Series [19] in a line: Liposome disruption (OD600), normal membrane model. On the procedure:
as §6

Series [20] has as its system non-cancerous cell lines HUVEC and NL20. As to the kind of experiment: MTT cytotoxicity, non-cancerous control cell lines. It counts as cell-based, human. On the procedure: as §2, §3, §4
In series [21] the test system is T24 (urinary bladder transitional cell carcinoma) cells. Nature of the series: MTT cytotoxicity assay, T24. The note with it: IC50-HUVEC/IC50-T24.

Regarding `N.N.[Cl][Pt][Cl]` [Cis, Cisplatin], in [1], the “Combined FIC Score, OVCAR-3” value was 0.31 and the “synergy with MAD1, OVCAR-3” value was “potently synergizes”. For the same compound, in [2], the “Combined FIC Score, NCl/ADR-RES” value is 0.27; the “drug potency (IC50) in NCI/ADR-RES on co-treatment with MAD1” value is “restored the potency”; the “synergy with MAD1, NCI/ADR-RES” value was “potently synergizes”. Besides, the “spheroid size, combination” value in series [3] (2 μM cisplatin combined with 4 μM MAD1, 48 hours) is “potent and synergistic anticancer effects”. In addition, the “spheroid size, single agent” value in series [3] (2 μM cisplatin or 4 μM MAD1 alone, 48 hours) is “minimal reduction in size”.
On to `CC(=O)O[C@H]1C(=O)[C@@]2(C)[C@H]([C@H](OC(=O)c3ccccc3)[C@]3(O)C[C@H](OC(=O)[C@H](O)[C@@H](NC(=O)c4ccccc4)c4ccccc4)C(C)=C1C3(C)C)[C@]1(OC(C)=O)CO[C@@H]1C[C@@H]2O` [Ptx, Paclitaxel], for which, in [2], the “Combined FIC Score, NCl/ADR-RES” value was 0.27 and the “synergy with MAD1, NCI/ADR-RES” value was “potently synergizes”.
As to H-RWGKWFKKNSHLS-NH2 [DAP2], the IC50 in [4] and in [5] was above 100 µM throughout. Further, the “antimicrobial activity against polymicrobial panel” value in [6] was “inactive”. The pIC50 in [7], in series [8], in series [9] and in [10] was below 4.00 each time. Moreover, the “Cancerous (IC50, μM) OVCAR-3” value in series [7] (48 hours treatment, MTT) was “did not achieve an IC50”. Also, the “MIC (μM) B. subtilis (168)” value in series [11] was above 80 µM. In [12], the “MIC (μM) MS S. aureus” value was above 80 µM. In series [13], the “MIC (μM) MR S. aureus” value is above 80 µM. Also, the “MIC (μM) P. aeruginosa” value in [14] is above 80 µM. For the same compound, the “MIC (μM) E. coli” value in series [15] is above 80 µM. For the same compound, in series [16], the “MIC (μM) M. tuberculosis” value was above 80 µM. Also, the “activity towards all four tumor cell lines tested” value in series [17] (result in words) was “inactive”.
H-LWKRWVGVWRKWL-NH2 [DAP1]: the IC50 in series [4] was determined as 11.9 µM; in series [5] it was 14 µM. For the same compound, the “Therapeutic Index A549” value in series [4] (IC50-HUVEC/IC50-A549) stood at 1.6. Also, the “Therapeutic Index NCl/ADR-RES” value in series [5] (IC50-HUVEC/IC50-NCI/ADR-RES) came out at 1.4. Also, the “disruption/lysis of cancer membrane liposomes” value in [18] was “does not completely lyse”. The “disruption/interaction with normal (healthy) membrane liposomes” value in series [19] is reported as “little interaction affinity”. In addition, the “antimicrobial activity against polymicrobial panel” value in series [6] is reported as “bactericidal activity”. Further, the “toxicity towards non-cancerous control cell lines” value in [20] is “nearly equal toxicity”. Also, the negative logarithm of the IC50 (pIC50) in series [7] was 5.07; in [8] it was 4.82; in [9], 4.71; in [10] it was 4.72; in [17] it was 4.82 to 5.07. Also, in series [7] (IC50-HUVEC/IC50-OVCAR-3), the “Therapeutic Index OVCAR-3” value worked out at 2.3. In addition, the “MIC (μM) B. subtilis (168)” value in series [11] was below 0.6 µM. Further, the “MIC (μM) MS S. aureus” value in series [12] is 7 µM. Besides, in [13], the “MIC (μM) MR S. aureus” value turned out to be 5 µM. Also, the “MIC (μM) P. aeruginosa” value in series [14] turned out to be 20 µM. In series [15], the “MIC (μM) E. coli” value was found to be 10 µM. Further, the “MIC (μM) M. tuberculosis” value in series [16] is 20 µM. In series [17] (relative to HUVEC controls), the “therapeutic indices across cell lines” value is on record as at most 2.3. The “Therapeutic Index T24” value in [21] was found to be 1.3.
`COc1cccc2c1C(=O)c1c(O)c3c(c(O)c1C2=O)C[C@@](O)(C(=O)CO)C[C@@H]3O[C@H]1C[C@H](N)[C@H](O)[C@H](C)O1` [Dox, Doxorubicin]: in [1], the “Combined FIC Score, OVCAR-3” value is given as 0.33 and the “synergy with MAD1, OVCAR-3” value was “potently synergizes”. In addition, in series [2], the “Combined FIC Score, NCl/ADR-RES” value is recorded as 0.37; the “drug potency (IC50) in NCI/ADR-RES on co-treatment with MAD1” value is “restored the potency”; the “synergy with MAD1, NCI/ADR-RES” value was “potently synergizes”.
